Tests used:
[1] = system: ribosomal DNA recombination; test: Ribosomal DNA recombination assay (loss of ADE2 marker); assay type: cell-based, S. cerevisiae
C. elegans = C. elegans lifespan assay; assay type: in vivo
Experimental: Thus, the presence of resveratrol in the growth media of C. elegans extends their lifespan.
Bristol N2 (Caenorhabditis Genetics Center) was used as the wild-type strain. The sir-2.1 mutant strain was generated by backcrossing VC 199 (sir-2.1 (ok434)) to N2 four times. Cultures were grown on standard NGM media and maintained on E. coli strain OP50. For the lifespan assays, synchronized animals were transferred to treatment plates as young adults (2 d after hatching, day 0 of assay), and were transferred to fresh treatment plates every 2 days for the first 6 to 8 days of the assay. […] For some lifespan trials, heat-killed OP50 were used as a food source. OP50 cultures were heated to 65° C. for 30 minutes, then pelleted and resuspended in 1/10 volume in S Basal supplemented with 10 mM MgSO4. In all assays, worms were monitored daily for mortality by gently probing with a platinum pick. Assays were performed at 24° C. To assay worm feeding rates, worms at the indicated stages were placed on treatment plates (no FUdR) for 4-5 hours, then videoed for 1 minute using a Pixelink PL-662 camera. The frame rate was slowed and the pumping rate of the pharynx was counted. To assay fecundity, gravid hermaphrodites (5 per plate, raised from synchronized L1s on normal or treatment plates) were allowed to lay eggs on their respective media for 5 hours, and the total number of eggs was counted.

recombinant SIR-2.1 = recombinant SIR-2.1 (Caenorhabditis elegans, UniProt Q21921); test: SIR-2.1 deacetylation assay (Fluor de Lys); assay type: biochemical, C. elegans
Experimental: From 0.1 to 1 μg of SIR-2.1 and 1 μg of dSir2 were used per deacetylation assay as previously described with modifications (SIR-2.1: 200 μM NAD^+, 10 μM Fluor de Lys, FdL; dSir2: 25 μM NAD^+, 10 μM FdL)^26. STACs were dissolved at 10 mM in dimethylsulfoxide (DMSO) the day of the assay. In vitro fluorescence assay results were read in 96-well microplates (Corning Costar 3693) with a Wallac Victor Multilabel counter (Perkin Elmer, excitation at 360 nm, emission at 450 nm). Drosophila S2 cells were grown in Schneider media with fetal calf serum at 23-28° C., seeded at 9×10^4 cells/well, grown overnight and then exposed to 1 μM TSA, 500 μM polyphenols, and 200 μM FdL for 2 hr. Deacetylation of FdL with lysate from whole cells was determined as described^4. Unless otherwise indicated all initial rate measurements were means of three or more replicates obtained with single incubation times, at which point 5% or less of the substrate initially present was deacetylated.

[2] = target: T1, SIRT1 deacetylase (BIOMOL) (Homo sapiens, UniProt Q96EB6); test: High-throughput SIRT1 screening protocol (Fluor de Lys-SIRT1, 384 well); assay type: biochemical; conditions: positive controls; roughly 50 μM, 200 μM NAD+, 5 μM Fluor de Lys-SIRT1
T1 construct: purchased BIOMOL
T1 sequence (Q96EB6 1-747): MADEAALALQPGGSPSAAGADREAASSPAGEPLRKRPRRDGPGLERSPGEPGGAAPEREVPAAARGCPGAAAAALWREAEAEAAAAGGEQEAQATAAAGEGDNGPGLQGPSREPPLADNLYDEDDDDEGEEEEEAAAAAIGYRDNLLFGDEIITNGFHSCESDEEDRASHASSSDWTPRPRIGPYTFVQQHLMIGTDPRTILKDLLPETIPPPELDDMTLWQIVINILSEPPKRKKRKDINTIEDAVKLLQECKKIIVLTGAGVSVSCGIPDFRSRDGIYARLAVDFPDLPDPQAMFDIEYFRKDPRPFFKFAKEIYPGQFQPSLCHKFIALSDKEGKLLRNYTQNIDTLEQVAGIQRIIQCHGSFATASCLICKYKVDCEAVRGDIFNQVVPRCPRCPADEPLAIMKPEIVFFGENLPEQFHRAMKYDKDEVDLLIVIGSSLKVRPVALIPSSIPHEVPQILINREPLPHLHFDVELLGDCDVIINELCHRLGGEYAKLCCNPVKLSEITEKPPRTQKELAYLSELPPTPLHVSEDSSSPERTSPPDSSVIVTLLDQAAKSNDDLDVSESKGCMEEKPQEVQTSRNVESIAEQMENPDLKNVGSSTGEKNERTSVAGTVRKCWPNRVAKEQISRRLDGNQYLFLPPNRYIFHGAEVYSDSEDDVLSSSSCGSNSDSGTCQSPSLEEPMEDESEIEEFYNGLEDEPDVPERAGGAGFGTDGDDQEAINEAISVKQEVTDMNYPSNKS
Experimental: The reaction mixture contains (final): 0.5 units/reaction SIRT1 deacetylase (BIOMOL); 200 μM NAD^+; 5 μM Fluor de Lys-SIRT1 substrate (BIOMOL); buffer (25 mM Tris/Cl, pH 8.0, 137 mM NaCl, 2.7 mM KCl, 1 mM MgCl2, and 1 mg/ml BSA). In addition, a reaction mixture containing no enzyme was made so that each well receiving compound has a corresponding “no enzyme control” well. Reactions were performed in black 384 well plates (NUNC) in a final volume of 25 μl/well.
The reactions were started by combining enzyme and substrate in a reaction mixture immediately prior to aliquoting in plates (or substrate only for “no enzyme control” plates). Mixture were aliquoted to plates using Biotek μFill (Biotek Instruments). Control mixtures were manually added to designated wells. A library compound was added at a desired concentration by pin transfer to both “with enzyme” and “no enzyme” plates. Compounds were added in at least triplicate (with enzyme reaction in duplicate and no enzyme controls) at a final concentration of roughly 50 μM. The plates were incubated at 37° C. for 30-60 minutes. Then 25 μl of 1× Developer II (BIOMOL) plus 2 mM nicotinamide were added to all wells to stop the reactions. The reactions were left for at least 30 minutes at 37° C. for the signal to develop. The plates were read in a microplate-reading fluorometer capable of excitation at a wavelength in the range of 350-380 nm and detection of emitted light in the range of 440-460 nm. A read time of 0.1 sec per well was used.

[3] = system: AMPK and ACC phosphorylation; test: AMPK and ACC phosphorylation in mouse embryonic fibroblasts without LKB1; assay type: cell-based; conditions: LKB1 -/- cells; 50, 100, 200 μM
Experimental: Blots were stained for the presence of P-ACC, P-AMPK, AMPK, or tubulin as indicated on the left.
Similar results were also observed in mouse embryonic fibroblast (MEFs). […] Cells in the left panel were incubated overnight without serum before harvesting; the cells on the right were not incubated under serum free conditions. […] Tubulin served as a loading control.

[4] = system: TNF-alpha treated adipocytes; test: Radioactive glucose uptake in TNF-alpha treated insulin resistant adipocytes; assay type: cell-based; conditions: resveratrol 5 μM or 15 μM; roziglitazone 4 μM

recombinant SIR-2.1, sequence (Q21921 whole entry): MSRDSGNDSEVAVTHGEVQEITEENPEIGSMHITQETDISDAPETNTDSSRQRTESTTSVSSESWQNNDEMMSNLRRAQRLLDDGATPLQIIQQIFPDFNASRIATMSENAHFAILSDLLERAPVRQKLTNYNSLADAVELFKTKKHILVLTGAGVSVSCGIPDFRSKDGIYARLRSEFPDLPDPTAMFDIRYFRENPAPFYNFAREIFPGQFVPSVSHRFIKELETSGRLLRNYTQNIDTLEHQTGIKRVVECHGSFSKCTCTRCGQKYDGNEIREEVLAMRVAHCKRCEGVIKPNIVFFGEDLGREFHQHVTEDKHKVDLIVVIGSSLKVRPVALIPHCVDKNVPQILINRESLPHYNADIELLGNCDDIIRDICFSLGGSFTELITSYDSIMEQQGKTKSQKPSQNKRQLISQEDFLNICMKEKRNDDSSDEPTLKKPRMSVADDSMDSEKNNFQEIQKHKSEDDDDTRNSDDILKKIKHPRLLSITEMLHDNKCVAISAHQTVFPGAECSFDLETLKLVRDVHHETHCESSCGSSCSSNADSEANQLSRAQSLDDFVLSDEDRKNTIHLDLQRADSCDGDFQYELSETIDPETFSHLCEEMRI

SMILES: Oc1ccc(/C=C/c2cc(O)cc(O)c2)cc1 [Resveratrol, 3,5,4′-Trihydroxy-trans-stilbene]
- Effect on rDNA recombination ([1]; in the presence of the Sir2 inhibitor nicotinamide): decreased
- Effect on rDNA recombination ([1]; sir2 strain): does not suppress
- Lifespan extension (in words) (C. elegans; sir-2.1 null mutant): did not exhibit a significant lifespan extension
- Lifespan extension (C. elegans; wild-type worms, 100 μM, heat-killed or live E. coli, maximum): up to 15%
- Km of SIR-2.1 for the co-substrate NAD+ (recombinant SIR-2.1; 100 μM resveratrol, 10 μM Fluor de Lys): lowered
- Stimulation of deacetylation (recombinant SIR-2.1; dose-dependent, maximum): up to 2.5 fold
- Activation of SIRT1 [2]: 2.2 fold
- AMPK and ACC phosphorylation [3]: upregulation of both AMPK and ACC phosphorylation
- Insulin sensitivity (radioactive glucose uptake) [4]: partially rescued

Source: patent US20060276416A1, “Methods and compositions for treating flushing and drug induced weight gain” (Sirtris Pharmaceuticals, Inc., priority 2005, published 2006)
